From PubChem BioAssay AID1259411 (Chemical Carcinogenesis Research Information System (CCRIS), 2018)
The source made the active and inactive calls. How the calls were made is not given here.

Tested on: rodent carcinogenicity bioassays, tumor incidence
Experiment: CCRIS carcinogenicity studies
How it was run: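 NCI-built, expert-reviewed records of carcinogenicity and related test outcomes (mutagenicity, tumor promotion/inhibition) compiled from published and report sources, historical span 1985-2011, not updated.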

Cc1ccccc1[N+](=O)[O-]
carcinogen call (Species: MOUSE, Strain/Sex: B6C3F1/FEMALE, Route: ORAL, Dose: 0, 1250, 2500, 5000 PPM IN DIET FOR 105 WK (STUDY DURATION: 105 WK), Dose: 0, 1250, 2500, 5000 PPM IN DIET FOR 105 WK (STUDY DURATION: 105 WK), Tumor Site: Type of Lesion: CIRCULATORY SYSTEM: HEMANGIOSARCOMA, LARGE INTESTINE (CECUM): CARCINOMA, LIVER: HEPATOCELLULAR ADENOMA, HEPATOCELLULAR C, Tumor Site: Type of Lesion: CIRCULATORY SYSTEM: HEMANGIOSARCOMA, LARGE INTESTINE (CECUM): CARCINOMA, LIVER: HEPATOCELLULAR ADENOMA, HEPATOCELLULAR C): active; positive | carcinogen call (Species: MOUSE, Strain/Sex: B6C3F1/MALE, Route: ORAL, Dose: 0, 1250, 2500, 5000 PPM IN DIET FOR 105 WK (STUDY DURATION: 105 WK), Dose: 0, 1250, 2500, 5000 PPM IN DIET FOR 105 WK (STUDY DURATION: 105 WK), Tumor Site: Type of Lesion: CIRCULATORY SYSTEM: HEMANGIOSARCOMA, LARGE INTESTINE (CECUM): CARCINOMA): active; positive | carcinogen call (Species: RAT, Strain/Sex: F344/FEMALE, Route: ORAL, Dose: 0, 625, 1250, 2000 PPM IN DIET FOR 105 WK (STUDY DURATION: 105 WK), Dose: 0, 625, 1250, 2000 PPM IN DIET FOR 105 WK (STUDY DURATION: 105 WK), Tumor Site: Type of Lesion: SKIN (SUBCUTANEOUS): FIBROMA, FIBROMA OR FIBROSARCOMA, MAMMARY GLAND: FIBROADENOMA: LIVER: HEPATOCELLULAR ADENOMA): active; positive | carcinogen call (Species: RAT, Strain/Sex: F344/MALE, Route: ORAL, Dose: 0, 625, 1250, 2000 PPM IN DIET FOR 105 WK (STUDY DURATION: 105 WK), Dose: 0, 625, 1250, 2000 PPM IN DIET FOR 105 WK (STUDY DURATION: 105 WK), Tumor Site: Type of Lesion: MESOTHELIUM: MALIGNANT MESOTHELIOMA, SKIN (SUBCUTANEOUS): LIPOMA, FIBROMA, FIBROSARCOMA, FIBROMA OR FIBROSARCOMA, MAMMAR, Tumor Site: Type of Lesion: MESOTHELIUM: MALIGNANT MESOTHELIOMA, SKIN (SUBCUTANEOUS): LIPOMA, FIBROMA, FIBROSARCOMA, FIBROMA OR FIBROSARCOMA, MAMMAR): active; positive | carcinogen call (Species: RAT, Strain/Sex: F344/MALE, Route: ORAL, Dose: 0, 2000, 5000 PPM IN DIET FOR FIRST 3 MO (STUDY DURATION: 105 WK), Dose: 0, 2000, 5000 PPM IN DIET FOR FIRST 3 MO (STUDY DURATION: 105 WK), Tumor Site: Type of Lesion: LIVER: HEPATOCELLULAR ADENOMA OR CARCINOMA, CHOLANGIOCARCINOMA: LUNG: ALVEOLAR/BRONCHIOLAR ADENOMA, ALVEOLAR/BRONCHIOLAR): active; positive

Nc1ccc(-c2ccc(N)c(Cl)c2)cc1Cl
carcinogen call (Species: HAMSTER, Route: ORAL, Tumor Site: Type of Lesion: URINARY BLADDER): active; positive | carcinogen call (Species: RAT, Route: ORAL, Tumor Site: Type of Lesion: EAR (ZYMBAL GLAND), MAMMARY GLAND, INTEGUMENTARY SYSTEM (SKIN), HEMATOPOIETIC SYSTEM, URINARY BLADDER, Tumor Site: Type of Lesion: EAR (ZYMBAL GLAND), MAMMARY GLAND, INTEGUMENTARY SYSTEM (SKIN), HEMATOPOIETIC SYSTEM, URINARY BLADDER): active; positive | carcinogen call (Species: RAT, Route: SUBCUTANEOUS, Tumor Site: Type of Lesion: MAMMARY GLAND, INTEGUMENTARY SYSTEM (SKIN)): active; positive

CC(O)CN(N=O)C(=O)NCCCl (stereo unspecified)
carcinogen call (Species: RAT, Strain/Sex: F344/FEMALE, Route: INTRAVESICULAR, Dose: 0, 4.6 MG 2/WK FOR 30 WK (STUDY DURATION: LIFETIME), Tumor Site: Type of Lesion: BLADDER: TUMOR): active; positive | carcinogen call (Species: RAT, Strain/Sex: F344/FEMALE, Route: ORAL, Dose: 0, 46 MG/L IN DRINKING WATER 5 D/WK FOR 30 WK (STUDY DURATION: LIFETIME), Tumor Site: Type of Lesion: BLADDER: TUMOR, THYROID: FOLLICULAR TUMOR): active; positive | carcinogen call (Species: RAT, Strain/Sex: F344/MALE, Route: ORAL, Dose: 0, 46 MG/L IN DRINKING WATER 5 D/WK FOR 30 WK (STUDY DURATION: LIFETIME)): inactive; negative

CCSCC[C@H](N)C(=O)O
carcinogen call (Species: RAT, Strain/Sex: SPRAGUE-DAWLEY/MALE,FEMALE, Route: ORAL, Dose: 0.25% IN DIET FOR 38 WK (AVE), Tumor Site: Type of Lesion: LIVER: CARCINOMA): active; positive | carcinogen call (Species: RAT, Strain/Sex: SPRAGUE-DAWLEY/MALE, Route: ORAL, Dose: 0, 0.05% IN CHOLINE-FREE DIET FOR 12 MO (STUDY DURATION: 12 MO), Tumor Site: Type of Lesion: LIVER: HEPATOCELLULAR CARCINOMA): active; positive | carcinogen call (Species: RAT, Strain/Sex: SPRAGUE-DAWLEY/MALE, Route: ORAL, Dose: 0, 0.1% IN CHOLINE-FREE DIET FOR 12 MO (STUDY DURATION: 12 MO)): inactive; negative | carcinogen call (Species: RAT, Strain/Sex: STRAIN-CD/MALE, Route: ORAL, Dose: 0.2% IN NONTOXIC PEANUT MEAL DIET FOR 380 D, Tumor Site: Type of Lesion: LIVER): active; positive

Cc1ccc(S(=O)(=O)NC(=O)NN2CCCCCC2)cc1
carcinogen call (Species: MOUSE, Strain/Sex: B6C3F1/FEMALE, Route: ORAL, Dose: 0, 5000, 10000 PPM IN DIET, Dose: 0, 5000, 10000 PPM IN DIET): inactive; negative | carcinogen call (Species: MOUSE, Strain/Sex: B6C3F1/MALE, Route: ORAL, Dose: 0, 5000, 10000 PPM IN DIET, Dose: 0, 5000, 10000 PPM IN DIET): inactive; negative | carcinogen call (Species: RAT, Strain/Sex: F344/FEMALE, Route: ORAL, Dose: 0, 5000, 10000 PPM IN DIET, Dose: 0, 5000, 10000 PPM IN DIET): inactive; negative | carcinogen call (Species: RAT, Strain/Sex: F344/MALE, Route: ORAL, Dose: 0, 5000, 10000 PPM IN DIET, Dose: 0, 5000, 10000 PPM IN DIET): inactive; negative

Clc1ccc(Cl)cc1
carcinogen call (Species: MOUSE, Strain/Sex: B6C3F1/FEMALE, Route: GAVAGE, Dose: 0, 300, 600 MG/KG IN CORN OIL 5 D/WK FOR 103 WK, Dose: 0, 300, 600 MG/KG IN CORN OIL 5 D/WK FOR 103 WK, Tumor Site: Type of Lesion: LIVER: HEPATOCELLULAR ADENOMA, HEPATOCELLULAR CARCINOMA): active; positive | carcinogen call (Species: MOUSE, Strain/Sex: B6C3F1/MALE, Route: GAVAGE, Dose: 0, 300, 600 MG/KG IN CORN OIL 5 D/WK FOR 103 WK, Dose: 0, 300, 600 MG/KG IN CORN OIL 5 D/WK FOR 103 WK, Tumor Site: Type of Lesion: LIVER: HEPATOCELLULAR ADENOMA, HEPATOCELLULAR CARCINOMA): active; positive | carcinogen call (Species: MOUSE, Strain/Sex: CRJ:BDF1/FEMALE, Route: INHALATION, Dose: 0, 20, 75, 300 PPM 6 HR/D, 5 D/WK FOR 2 YRS (STUDY DURATION: 2 YRS), Dose: 0, 20, 75, 300 PPM 6 HR/D, 5 D/WK FOR 2 YRS (STUDY DURATION: 2 YRS), Tumor Site: Type of Lesion: LIVER: HEPATOCELLULAR ADENOMA, LIVER: HEPATOCELLULAR CARCINOMA, LIVER: HEPATOBLASTOMA, Tumor Site: Type of Lesion: LIVER: HEPATOCELLULAR ADENOMA, LIVER: HEPATOCELLULAR CARCINOMA, LIVER: HEPATOBLASTOMA): active; positive | carcinogen call (Species: MOUSE, Strain/Sex: CRJ:BDF1/MALE, Route: INHALATION, Dose: 0, 20, 75, 300 PPM 6 HR/D, 5 D/WK FOR 2 YRS (STUDY DURATION: 2 YRS), Dose: 0, 20, 75, 300 PPM 6 HR/D, 5 D/WK FOR 2 YRS (STUDY DURATION: 2 YRS), Tumor Site: Type of Lesion: LIVER: HEPATOCELLULAR CARCINOMA, LIVER: HEPATOBLASTOMA, HISTIOCYTIC SARCOMA, Tumor Site: Type of Lesion: LIVER: HEPATOCELLULAR CARCINOMA, LIVER: HEPATOBLASTOMA, HISTIOCYTIC SARCOMA): active; positive | carcinogen call (Species: RAT, Strain/Sex: F344/FEMALE, Route: GAVAGE, Dose: 0, 300, 600 MG/KG IN CORN OIL 5 D/WK FOR 103 WK, Dose: 0, 300, 600 MG/KG IN CORN OIL 5 D/WK FOR 103 WK): inactive; negative | carcinogen call (Species: RAT, Strain/Sex: F344/MALE, FEMALE, Route: INHALATION, Dose: 0, 20, 75, 300 PPM 6 HR/D, 5 D/WK FOR 2 YRS (STUDY DURATION: 2 YRS), Dose: 0, 20, 75, 300 PPM 6 HR/D, 5 D/WK FOR 2 YRS (STUDY DURATION: 2 YRS)): inactive; negative | carcinogen call (Species: RAT, Strain/Sex: F344/MALE, Route: GAVAGE, Dose: 0, 150, 300 MG/KG IN CORN OIL 5 D/WK FOR 103 WK, Dose: 0, 150, 300 MG/KG IN CORN OIL 5 D/WK FOR 103 WK, Tumor Site: Type of Lesion: KIDNEY: TUBULAR CELL ADENOCARCINOMA, TUBULAR CELL ADENOMA OR ADENOCARCINOMA): active; positive
